Patent publication US20090023163A1, “Method of Measuring Enzyme Activity and Method of Evaluating Compound” (priority 2005, published 2009)

Tests used:
Type in all cases: biochemical
[1] = target: T1, hLCE (human long chain fatty acyl elongase) (Homo sapiens, UniProt Q9H5J4); assay: Measuring LCE activity using N-Tag-hACBP (SPA); conditions: yeast microsomal sample of hLCE, 40 μM long chain fatty acid CoA, 60 μM malonyl-CoA, 37° C. 2 hours, FIG. 1
T1 construct: made in house; host or cells: Pichia pastoris (yeast), microsomal sample
T1 sequence (Q9H5J4 1-265): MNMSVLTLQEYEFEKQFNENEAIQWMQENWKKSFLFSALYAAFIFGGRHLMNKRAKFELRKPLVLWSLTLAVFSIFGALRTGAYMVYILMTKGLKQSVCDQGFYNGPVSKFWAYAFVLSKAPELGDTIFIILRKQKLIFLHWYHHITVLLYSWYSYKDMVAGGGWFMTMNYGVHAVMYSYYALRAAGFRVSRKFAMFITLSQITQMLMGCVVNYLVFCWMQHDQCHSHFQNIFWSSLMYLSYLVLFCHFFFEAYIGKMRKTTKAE
Method: An assay buffer solution (100 mM sodium chloride, 100 mM Tris buffer solution, pH 6.5) containing the above-mentioned yeast microsomal sample, 1 μM rotenone (manufactured by Sigma), 1 mM NADPH (reduced nicotinamide adenine dinucleotide phosphate, manufactured by Sigma), 20 μM fatty acid-free bovine serum albumin (manufactured by Sigma), 40 μM long chain fatty acid CoA (manufactured by Sigma), and 50,000 dpm of 60 μM malonyl-CoA (manufactured by Sigma, Muromachi Yakuhin Kagaku) was incubated at 37° C. for 2 hours in a 96-well Opti-plate (Packard), and then, 0.25% octyl-beta-glucoside was added thereto to stop the reaction.
Subsequently, 2 μg of a human acyl-CoA-binding protein tagged with a His tag at the N terminus and 500 μg of SPA resin (PVT copper His-Tag SPA Beads, manufactured by Amersham) were added thereto, and the resulting mixture was incubated at 37° C. for 30 minutes.
The solution after incubation was centrifuged at 3,000 rpm, and an activity was measured using a Top Count (Packard). Here, in order to evaluate a specific activity, an expression vector in which hLCE was not cloned was transfected into a host yeast, Pichia pastris by the electroporation method, whereby a transformed yeast was obtained. […]

[2] = target: T2, hElovl-3 (human elongase of very long chain fatty acids-like 3) (Homo sapiens, UniProt Q9HB03); assay: Measuring activity of hElovl-3 using N-Tag-hACBP (SPA); conditions: HEK293 microsomal sample of hElovl-3, 40 μM long chain fatty acid CoA, 60 μM malonyl-CoA, 37° C. 2 hours, FIG. 2
T2 construct: made in house; host or cells: HEK293, microsomal sample
T2 sequence (Q9HB03 1-270): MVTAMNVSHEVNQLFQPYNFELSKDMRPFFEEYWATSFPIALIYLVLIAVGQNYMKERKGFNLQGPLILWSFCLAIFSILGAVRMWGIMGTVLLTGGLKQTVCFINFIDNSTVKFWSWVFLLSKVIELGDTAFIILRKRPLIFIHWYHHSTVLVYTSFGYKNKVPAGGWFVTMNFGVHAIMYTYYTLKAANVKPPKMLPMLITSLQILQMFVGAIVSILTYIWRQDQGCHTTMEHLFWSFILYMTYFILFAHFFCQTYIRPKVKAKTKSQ
Method: (§1) An assay buffer solution (100 mM sodium chloride, 100 mM Tris buffer solution, pH 6.5) containing the cell microsomal sample of hElovl-3 or hElovl-1 obtained by the above-mentioned preparation method, 1 μM rotenone (manufactured by Sigma), 1 mM NADPH (reduced nicotinamide adenine dinucleotide phosphate, manufactured by Sigma), 20 μM fatty acid-free bovine serum albumin (manufactured by Sigma), 40 μM long chain fatty acid CoA (manufactured by Sigma, manufactured by Avanti), and 50,000 dpm of 60 μM malonyl-CoA (manufactured by Sigma, Muromachi Yakuhin Kagaku) was incubated at 37° C. for 2 hours in a 96-well Opti-plate (Packard), and then, 0.25% octyl-beta-glucoside was added thereto to stop the reaction.
(§2) Subsequently, 2 μg of a human acyl-CoA-binding protein tagged with a His tag at the N terminus and 500 μg of SPA resin (PVT copper His-Tag SPA Beads, manufactured by Amersham) were added to the reaction solution, and the resulting mixture was incubated at 37° C. for 30 minutes, followed by centrifugation at 3,000 rpm, and an activity was measured using a Top Count (Packard).
(§3) In order to evaluate a specific activity, an expression vector in which either enzyme was not cloned was transfected into a host cell, HEK293 by the host cationic lipid method, and comparison was carried out with the microsomal sample obtained by a standard method from the expressing cell.

[3] = target: T3, hElovl-1 (human elongase of very long chain fatty acids-like 1) (Homo sapiens, UniProt Q9BW60); assay: Measuring activity of hElovl-1 using N-Tag-hACBP (SPA); conditions: HEK293 microsomal sample of hElovl-1, 40 μM long chain fatty acid CoA, 60 μM malonyl-CoA, 37° C. 2 hours, FIG. 3
T3 construct: implied by vector pCMV-Tag2B, own knowledge) (N); made in house; host or cells: HEK293, microsomal sample
T3 sequence (Q9BW60 1-279): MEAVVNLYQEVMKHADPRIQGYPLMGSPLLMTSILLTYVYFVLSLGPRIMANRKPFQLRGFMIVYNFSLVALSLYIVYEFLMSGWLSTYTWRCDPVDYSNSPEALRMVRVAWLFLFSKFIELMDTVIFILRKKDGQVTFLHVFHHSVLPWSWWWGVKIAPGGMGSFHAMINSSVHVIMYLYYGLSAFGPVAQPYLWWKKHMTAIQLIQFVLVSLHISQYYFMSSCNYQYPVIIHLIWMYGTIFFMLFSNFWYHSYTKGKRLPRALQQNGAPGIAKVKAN
Method: as §1, §2, §3

Compound	enhancement of a signal (enzyme activity with the acyl-CoA used as the substrate) [1]	enhancement of a signal (enzyme activity with the acyl-CoA used as the substrate) [2]	enhancement of a signal (enzyme activity with the acyl-CoA used as the substrate) [3]
CCCCCCCCCCCCCCCCCC(=O)SCCNC(=O)CCNC(=O)[C@H](O)C(C)(C)COP(=O)(O)OP(=O)(O)OC[C@H]1O[C@@H](n2cnc3c(N)ncnc32)[C@H](O)[C@@H]1OP(=O)(O)O [stearoyl-CoA]	enhancement of a signal was not observed	specific enhancement of a signal was observed	
CCCCCCCCCCCCCCCC(=O)SCCNC(=O)CCNC(=O)[C@H](O)C(C)(C)COP(=O)(O)OP(=O)(O)OC[C@H]1O[C@@H](n2cnc3c(N)ncnc32)[C@H](O)[C@@H]1OP(=O)(O)O [palmitoyl-CoA]	specific enhancement of a signal was observed		
CCCCCCCCCCCCCCCCCCCCCCCC(=O)SCCNC(=O)CCNC(=O)[C@H](O)C(C)(C)COP(=O)(O)OP(=O)(O)OC[C@H]1O[C@@H](n2cnc3c(N)ncnc32)[C@H](O)[C@@H]1OP(=O)(O)O [lignoceroyl-CoA]		enhancement of a signal was not observed	enhancement of a signal was not observed
CCCCCCCCCCCCCCCCCCCC(=O)SCCNC(=O)CCNC(=O)[C@H](O)C(C)(C)COP(=O)(O)OP(=O)(O)OC[C@H]1O[C@@H](n2cnc3c(N)ncnc32)[C@H](O)[C@@H]1OP(=O)(O)O [arachidoyl-CoA]			specific enhancement of a signal was observed
